Results: patent publication US6762173B2 (priority 1997, dated 2004)
Where two headings read alike, the source gives them in different places.

Assays:
Uncinula necator [1] = experiment: In vivo greenhouse test against powdery mildew of grapevine (Example 10); details: FIG. 7
Protocol: (§1) In Vivo Greenhouse Test of a Composition Comprising Compound (I) and Compound (IIF) (Spiroxamine) Against Powdery Mildew of Grapevine (Uncinula necator):
A suspension of 60 mg comprising compound (I) in a liquid mixture consisting of 0.3 ml of a surfactant (oleate of polyoxyethylenated derivative of sorbitan) diluted to 10% in water and 60 ml of water is prepared.
An emulsifiable concentrate containing 500 g/l of spiroxamine is used.
Dilute suspensions corresponding to a spraying volume of 250 l of spraying liquid per ha are prepared from these compositions by dilution with water.
These 2 liquids are mixed together so as to obtain a compound (I)/spiroxamine ratio equal to 0.33:1:3.
Grapevine plants (Chardonnay variety) are cultivated in pots. When these plants are 2 months old, they are treated by spraying with a liquid comprising one of the compounds (I) and (IIF), either individually or as a mixture in one of the ratios indicated above.
After 24 hours, the grapevine leaves are contaminated by dusting them with powdery mildew spores (Uncinula necator) obtained from naturally contaminated leaves.
After this contamination, the treated and contaminated grapevine plants are placed for 15 days at 20° C. at a relative humidity of about 70%. […]
(§2) The efficacy of the treatment (expressed in %) is calculated according to the so-called Abbott formula. […]

Uncinula necator [2] = experiment: In vivo greenhouse test against powdery mildew of grapevine, read 22 days after contamination (Example 11); details: FIG. 8
Description: as §1
Example 10 is repeated, setting the compound (I)/spiroxamine ratio to 0.11:0.33 and 1 and observing the results 22 days after contamination.

Phytophthora infestans [3] = type: in vivo; details: potato Bintje, FIG. 1
Phytophthora infestans [4] = type: in vivo; details: potato Bintje, FIG. 4
Botrytis cinerea = experiment: In vivo greenhouse test against grey rot of grapevine (Example 8); details: FIG. 5
Protocol: In Vivo Greenhouse Test of a Composition Comprising Compound (I) and Compound (IIC) (Cyprodinil) Against Grey Rot of Grapevine (Botrytis cinerea):
(§3) A 70% dispersible granule of compound (I) and a 75% dispersible granule of cyprodinil are used.
(§4) Dilute suspensions corresponding to a spraying volume of 1000 l of spraying liquid per ha are prepared from these compositions by dilution with water.
These 2 liquids are mixed together so as to obtain a compound (I)/cyprodinil ratio equal to 0.2.
Grapevine plants (Chardonnay variety) are cultivated in pots. When these plants are 2 months old, they are treated by spraying with a liquid comprising one of the compounds (I) and (IIC), either individually or as a mixture in the ratio indicated above.
After 24 hours, leaves are cut off the treated plants, placed on moistened filter paper in a Petri dish and are contaminated by applying 10 drops of an aqueous suspension of spores (containing 150,000 sp/cm^3) of Botrytis cinerea. […]
For this, the number of drops of Botrytis cinerea suspension from which a grey mark, corresponding to attack by the phytopathogenic fungus, developed is counted for a grapevine leaf. […]
as §2

Alternaria brassicae = experiment: In vivo greenhouse test against Alternaria rot in radish (Example 9); details: radish Pernot plantules, contamination 24 hours after treatment, FIG. 6
Protocol: In Vivo Greenhouse Test of a Composition Comprising Compound (I) and Compound (IIC) (Cyprodinil) Against Alternaria Rot in Radish (Alternaria brassicae):
as §3, §4
These 2 liquids are mixed together so as to obtain a compound (I)/cyprodinil ratio equal to 0.2−0.5−1.
Radish plantules (Pernot variety) are cultivated in pots. When these plantules have reached the 2-leaf cotyledon stage, they are treated by spraying with a liquid comprising compounds (I) and (IIC), either individually or as a mixture in the ratios indicated above.
24 hours after treatment, contamination is carried out by spraying with an aqueous suspension of spores (containing 40,000 sp/cm^3) of Alternaria brassicae.
After this contamination, the treated and contaminated plantules are placed for 10 days at about 20° C. in an atmosphere of saturated humidity. […]
For this, the percentage of attack of the cotyledon leaves by the fungus is assessed visually, the said attack being recognizable by brown necrosis marks. From the degree of attack thus obtained (expressed in %), the efficacy is calculated according to the Abbott formula with reference to the degree of attack of the control. […]

Plasmopara viticola [5] = experiment: In vivo greenhouse test on downy mildew of grapevine, preventive treatment at 4 days (Example 5); details: grapevine Chardonnay, FIG. 2
Protocol: In Vivo Greenhouse Test of the Combination of Compound (I) with Compound (IIA), Propamocarb, on Plasmopara viticola (Downy Mildew of Grapevine) by Preventive Treatment at 4 Days:
A soluble concentrate containing 722 g/l of propamocarb and a 70% dispersible granule of compound (I) are used.
Dilute suspensions corresponding to a spraying volume of 500 l of spraying liquid per ha are prepared from these compositions by dilution with water.
These 2 liquids are mixed together so as to obtain a ratio: compound (I)/propamocarb, equal to: 0.015−0.125−0.5.
Cuttings of grapevine (Vitis vinifera), Chardonnay variety, are cultivated in pots. When these plants are 2 months old, they are treated by spraying with the above liquids, taken individually or as a mixture.
After 4 days, each plant is contaminated by spraying with an aqueous suspension of spores of Plasmopara viticola obtained from sporulated leaves contaminated 7 days beforehand. […]
The results are read 7 days after the contamination, by comparison with the control plants, that is to say untreated but contaminated plants.
The surface area of leaves showing a whitish appearance on their underside, corresponding to attack by the fungus, is assessed visually and the degree of attack is obtained by dividing by the total foliar surface.
The efficacy is then calculated using the Abbott formula and using the result on the control plant. […]

Phytophthora infestans [6] = type: in vivo; details: potato Bintje lamellae, preventive 4 days, FIG. 3
Plasmopara viticola [7] = experiment: In vivo greenhouse test of ternary composition against downy mildew of grapevine, treatment 24 h after contamination (Example 12); details: grapevine Chardonnay, compound (I) alone, FIG. 9
[8] = contamination 4 days after treatment

## CCCN(CC)CC1COC2(CCC(C(C)(C)C)CC2)O1 (centres unmarked) [spiroxamine, 8-t-butyl-2-(N-ethyl-N-n-propylamino)methyl-1,4-dioxaspiro[4.5]decane]
Uncinula necator [1]; grapevine Chardonnay, read 15 days after contamination
  dose alone which needs to be applied to destroy 70% of the parasite: 6.6 g/ha
Uncinula necator [2]; grapevine Chardonnay, read 22 days after contamination
  dose alone which needs to be applied to destroy 70% of the parasite: 61 g/ha

## O=C([O-])c1ccccc1O.[Na+] [sodium salt of salicylic acid]
Phytophthora infestans [3]; under the test conditions
  efficacy when applied alone: no efficacy

## CSC(=O)c1cccc2nnsc12 [CGA 245704, S-methyl ester of 1,2,3-benzothiadiazole-7-carbothioic acid]
Phytophthora infestans [4]; under the test conditions
  efficacy when applied alone: no efficacy

## Cc1cc(C2CC2)nc(Nc2ccccc2)n1 [cyprodinil, 2-phenylamino-4-cyclopropyl-6-methyl-pyrimidine]
Botrytis cinerea; grapevine Chardonnay cut leaves, contamination 24 hours after treatment
  dose alone which needs to be applied to destroy 90% of the parasite: 73 mg/L
Alternaria brassicae
  dose alone which needs to be applied to obtain 70% destruction of the parasite: 178 mg/L

## CSC1=N[C@@](C)(c2ccccc2)C(=O)N1Nc1ccccc1 [compound (I), (4S)-4-methyl-2-methylthio-4-phenyl-1-phenyl-amino-2-imidazolin-5-one]
Phytophthora infestans [3]; [8]
  dose alone which needs to be applied to destroy 70% of the parasite: 36 mg/L
Plasmopara viticola [5]; preventive 4 days
  dose alone which needs to be applied to obtain 90% efficacy: 8.2 mg/L
Phytophthora infestans [6]
  dose alone which needs to be applied to obtain 90% destruction of the parasite: 8.7 mg/L
Phytophthora infestans [4]; [8]
  dose alone which needs to be applied to destroy 70% of the parasite: 177 mg/L
Botrytis cinerea; grapevine leaves, under the test conditions
  efficacy when applied alone: no efficacy
Alternaria brassicae
  dose alone which needs to be applied to obtain 70% destruction of the parasite: 167 mg/L
Uncinula necator [1]; grapevine, under the test conditions
  efficacy when applied alone: no efficacy
Uncinula necator [2]; grapevine, under the test conditions, 22 days
  efficacy when applied alone: no efficacy
Plasmopara viticola [7]
  dose alone which needs to be applied to obtain 70% destruction of the parasite: 36 mg/L

## CCCOC(=O)NCCCN(C)C [propamocarb, propyl 3-(dimethylamino)propyl carbamate]
Plasmopara viticola [5]; under the test conditions
  efficacy when applied alone: no efficacy
Phytophthora infestans [6]
  dose alone which needs to be applied to obtain 90% destruction of the parasite: 553 mg/L
